Drawing on patent US8987314B2, “Amide, urea or sulfone amide linked benzothiazole inhibitors of endothelial lipase” (Bristol-Myers Squibb Company, priority 2012, dated 2015), this text covers IC50 for 19 molecules.

For one assay, the target named is Endothelial lipase (EL) (Homo sapiens (Human), UniProt Q9Y5X9). The experiment in a line: EL assay: endothelial lipase activity with fluorescent substrate A10070 in DMPG vesicles. The assay is classed as biochemical. An outline of the steps: (§1)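 Vesicles prepared: A10070 dried with DMPG, resuspended in HEPES pH 8.0/NaCl/EDTA, sonicated on ice. Enzyme incubated with compound 30 min at 37° C. Reaction started with 1:10 diluted vesicles. Fluorescence (490/530 nm) followed 60 min; slope from 300–900 secs gives rate.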
Endothelial lipase (EL), sequence (Q9Y5X9 21-500): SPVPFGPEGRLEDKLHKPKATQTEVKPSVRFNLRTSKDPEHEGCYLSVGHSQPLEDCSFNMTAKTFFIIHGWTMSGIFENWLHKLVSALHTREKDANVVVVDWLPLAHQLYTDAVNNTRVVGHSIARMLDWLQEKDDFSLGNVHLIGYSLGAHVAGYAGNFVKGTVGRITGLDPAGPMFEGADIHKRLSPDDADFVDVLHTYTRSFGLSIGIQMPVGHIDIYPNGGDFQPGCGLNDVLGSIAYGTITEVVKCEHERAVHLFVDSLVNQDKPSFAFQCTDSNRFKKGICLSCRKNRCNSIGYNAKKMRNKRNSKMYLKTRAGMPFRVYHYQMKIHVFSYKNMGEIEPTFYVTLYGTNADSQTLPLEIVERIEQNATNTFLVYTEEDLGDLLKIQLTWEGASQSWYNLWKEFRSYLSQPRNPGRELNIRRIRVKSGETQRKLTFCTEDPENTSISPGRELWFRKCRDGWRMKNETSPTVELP

A further assay has as its target hepatic lipase (HL) (Homo sapiens (Human), UniProt P11150). The experiment in a line: HL assay: hepatic lipase activity with fluorescent substrate A10070 in DMPG vesicles. It counts as biochemical. Put shortly:
as §1

Where [1] appears, read: EL from conditioned media of HT-1080 cells, 30 min incubation with compound at 37° C., A10070/DMPG vesicles.
Where [2] appears, read: HL partially purified from conditioned media of COS cells, 30 min incubation with compound at 37° C., A10070/DMPG vesicles.

Read-outs that look alike come from different tables or passages of the source.

hepatic lipase (HL), sequence (P11150 23-499, species assumed): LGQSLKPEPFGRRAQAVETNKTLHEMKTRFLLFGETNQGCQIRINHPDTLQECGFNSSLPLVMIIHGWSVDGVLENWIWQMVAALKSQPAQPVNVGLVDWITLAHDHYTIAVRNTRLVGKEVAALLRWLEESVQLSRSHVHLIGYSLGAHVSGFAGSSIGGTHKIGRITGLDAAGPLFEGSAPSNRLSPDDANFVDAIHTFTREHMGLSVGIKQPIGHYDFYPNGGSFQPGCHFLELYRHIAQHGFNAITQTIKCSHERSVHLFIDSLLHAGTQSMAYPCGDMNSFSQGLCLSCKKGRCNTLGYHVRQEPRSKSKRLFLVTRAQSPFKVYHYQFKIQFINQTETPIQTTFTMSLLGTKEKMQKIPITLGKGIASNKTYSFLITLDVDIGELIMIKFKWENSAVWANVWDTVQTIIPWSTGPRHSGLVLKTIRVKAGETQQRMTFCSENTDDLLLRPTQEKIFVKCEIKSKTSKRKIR

As usually defined, the IC50 is the point on the concentration scale where inhibition reaches its midpoint. With `CS(=O)(=O)C(C(=O)NCCS(N)(=O)=O)c1nc2ccc(-c3ccc4c(c3)C(=O)NC4)cc2s1` (centres unmarked) [Example B181, 2-(methylsulfonyl)-2-(6-(3-oxo-2,3-dihydro-1H-isoindol-5-yl)-1,3-benzothiazol-2-yl)-N-(2-sulfamoylethyl)acetamide], the 50% inhibitory concentration (IC50) was under 10 nM at Endothelial lipase (EL) and 145 nM against hepatic lipase (HL).
`CS(=O)(=O)C(C(=O)NCCS(N)(=O)=O)c1nc2ccc(-c3ccc4c(c3)CNC4=O)cc2s1` (centres unmarked) [Example B182, 2-(methylsulfonyl)-2-(6-(1-oxo-2,3-dihydro-1H-isoindol-5-yl)-1,3-benzothiazol-2-yl)-N-(2-sulfamoylethyl)acetamide]: the IC50 is under 10 nM against Endothelial lipase (EL) and 36 nM against hepatic lipase (HL).
As to `CS(=O)(=O)C(C(=O)NCCS(N)(=O)=O)c1nc2ccc(-c3ccc4c(c3)NC(=O)C4)cc2s1` (centres unmarked) [Example B183, 2-(methylsulfonyl)-2-(6-(2-oxo-2,3-dihydro-1H-indol-6-yl)-1,3-benzothiazol-2-yl)-N-(2-sulfamoylethyl)a-cetamide], the IC50 on Endothelial lipase (EL) was under 10 nM; against hepatic lipase (HL), 139 nM.
Taken in the same sequence, the figures for `COc1ncccc1-c1ccc2nc(C(C(=O)NCCS(N)(=O)=O)S(C)(=O)=O)sc2c1` (centres unmarked) [Example B184, 2-(6-(2-methoxy-3-pyridinyl)-1,3-benzothiazol-2-yl)-2-(methylsulfonyl)-N-(2-sulfamoylethyl)acetamide] were under 10 nM and 65 nM.
With `COc1cccc(-c2ccc3nc(C(C(=O)NCCS(N)(=O)=O)S(C)(=O)=O)sc3c2)n1` (centres unmarked) [Example B185, 2-(6-(6-methoxy-2-pyridinyl)-1,3-benzothiazol-2-yl)-2-(methylsulfonyl)-N-(2-sulfamoylethyl)acetamide], the IC50 at Endothelial lipase (EL) and against hepatic lipase (HL) was under 10 nM each time.
`CC(C)(O)Cn1cc(-c2ccc3nc(C(C(=O)NCCS(N)(=O)=O)S(C)(=O)=O)sc3c2)ccc1=O` (centres unmarked) [Example B186, 2-(6-(1-(2-hydroxy-2-methylpropyl)-6-oxo-1,6-dihydro-3-pyridinyl)-1,3-benzothiazol-2-yl)-2-(methylsulfonyl)-N-(2-sulfamoylethyl)acetamide]: the 50% inhibitory concentration (IC50) came out at 1.1 nM against Endothelial lipase (EL) and 10000 nM against hepatic lipase (HL).
As for `CS(=O)(=O)C(C(=O)NCCS(N)(=O)=O)c1nc2ccc(-c3ccc(O)nc3)cc2s1` (centres unmarked) [Example B187, 2-(Methylsulfonyl)-2-(6-(6-oxo-1,6-dihydro-3-pyridinyl)-1,3-benzothiazol-2-yl)-N-(2-sulfamoylethyl)acetamide], the 50% inhibitory concentration (IC50) is 16 nM at Endothelial lipase (EL) (setting [1]) and 155 nM at hepatic lipase (HL) (setting [2]).
As to `CS(=O)(=O)C(C(=O)NCCS(N)(=O)=O)c1nc2ccc(-c3cccc(O)n3)cc2s1` (centres unmarked) [Example B188, 2-(methylsulfonyl)-2-(6-(6-oxo-1,6-dihydro-2-pyridinyl)-1,3-benzothiazol-2-yl)-N-(2-sulfamoylethyl)acetamide], the results for the half-maximal inhibitory concentration (IC50) on Endothelial lipase (EL) and against hepatic lipase (HL) were under 10 nM and 398 nM, respectively.
Regarding `CS(=O)(=O)C(C(=O)NCCS(N)(=O)=O)c1nc2ccc(-c3ccnc(O)c3)cc2s1` (centres unmarked) [Example B189, 2-(methylsulfonyl)-2-(6-(2-oxo-1,2-dihydro-4-pyridinyl)-1,3-benzothiazol-2-yl)-N-(2-sulfamoylethyl)acetamide], the results for the half-maximal inhibitory concentration (IC50) against Endothelial lipase (EL) and on hepatic lipase (HL) were under 10 nM and 13 nM, respectively.
In the case of `COCCS(=O)(=O)C(C(=O)NCCS(N)(=O)=O)c1nc2ccc(-c3ccnc(O)c3)cc2s1` (centres unmarked) [Example B190, 2-((2-methoxyethyl)sul-fonyl)-2-(6-(2-oxo-1,2-dihydro-4-pyridinyl)-1,3-benzothiazol-2-yl)-N-(2-sulfamoylethyl)acetamide], the 50% inhibitory concentration (IC50) against Endothelial lipase (EL) was under 10 nM; on hepatic lipase (HL) it was 272 nM.
For `NS(=O)(=O)CCNC(=O)C(c1nc2ccc(-c3ccnc(O)c3)cc2s1)S(=O)(=O)CCC(F)(F)F` (centres unmarked) [Example B191, 2-(6-(2-oxo-1,2-dihydro-4-pyridinyl)-1,3-benzothiazol-2-yl)-N-(2-sulfamoylethyl)-2-((3,3,3-trifluoropropyl)sulfonyl)a-cetamide], in that order: under 10 nM and 445 nM.
For `CS(=O)(=O)C(C(=O)NCCS(N)(=O)=O)c1nc2ccc(-c3cc(O)ncc3F)cc2s1` (centres unmarked) [Example B192, 2-(6-(5-fluoro-2-oxo-1,2-dihydro-4-pyridinyl)-1,3-benzothiazol-2-yl)-2-(methylsulfonyl)-N-(2-sulfamoylethyl)acetamide], in that order: under 10 nM and 20600 nM.
Consider `CS(=O)(=O)C(C(=O)NCCS(N)(=O)=O)c1nc2ccc(-c3ccnc(O)c3F)cc2s1` (centres unmarked) [Example B193, 2-[6-(3-fluoro-2-hydroxy-4-pyridinyl)-1,3-benzothiazol-2-yl]-2-(methylsulfonyl)-N-(2-sulfamoylethyl)acetamide], for which the IC50 was found to be 0.5 nM on Endothelial lipase (EL) and 238 nM at hepatic lipase (HL).
On to `CS(=O)(=O)C(C(=O)NCCS(N)(=O)=O)c1nc2cc(-c3ccnc(O)c3)ccc2s1` (centres unmarked) [Example B194, 2-(methylsulfonyl)-2-(5-(2-oxo-1,2-dihydro-4-pyridinyl)-1,3-benzothiazol-2-yl)-N-(2-sulfamoylethyl)acetamide], for which the IC50 against Endothelial lipase (EL) is 2 nM; at hepatic lipase (HL) it was 95 nM.
Taken in the same sequence, the figures for `CS(=O)(=O)C(C(=O)NCCS(N)(=O)=O)c1nc2cc(-c3ccc(O)nc3)ccc2s1` (centres unmarked) [Example B195, 2-(methylsulfonyl)-2-(5-(6-oxo-1,6-dihydro-3-pyridinyl)-1,3-benzothiazol-2-yl)-N-(2-sulfamoylethyl)acetamide] were 1 nM and 105 nM.
Turning to `CC(C)(C)OC(=O)c1ccc2nc(C(C(=O)NCCS(N)(=O)=O)S(=O)(=O)CCC(F)(F)F)sc2c1` (centres unmarked) [Example B196, tert-Butyl 2-(2-oxo-2-((2-sulfamoylethyl)amino)-1-((3,3-trifluoropropyl)sulfonyl)ethyl)benzo[d]thiazole-6-carboxylate], the values for the half-maximal inhibitory concentration (IC50) at Endothelial lipase (EL) (setting [1]) and on hepatic lipase (HL) (setting [2]) were 65 nM and 379 nM, respectively.
Consider `NS(=O)(=O)CCNC(=O)C(c1nc2ccc(C(=O)N3CCC(F)(F)C3)cc2s1)S(=O)(=O)CCC(F)(F)F` (centres unmarked) [Example B197, 2-(6-(3,3-Difluoropyrrolidine-1-carbonyl)benzo[d]thiazol-2-yl)-N-(2-sulfamoylethyl)-2-((3,3,3-trifluoropropyl)sulfonyl)acetamide], for which the IC50 on Endothelial lipase (EL) (setting [1]) is under 10 nM; on hepatic lipase (HL) (setting [2]) it was 10100 nM.
Regarding `NS(=O)(=O)CCNC(=O)C(c1nc2ccc(C(=O)NCCc3c[nH]cn3)cc2s1)S(=O)(=O)CCC(F)(F)F` (centres unmarked) [Example B198, N-(2-(1H-imidazol-4-yl)ethyl)-2-(2-oxo-2-((2-sulfamoylethyl)amino)-1-((3,3,3-trifluoropropyl)sul-fonyl)ethyl)-1,3-benzothiazole-6-carboxamide], the values for the IC50 against Endothelial lipase (EL) and against hepatic lipase (HL) were 148 nM and 3930 nM, respectively.
Take `CC(C)c1cc(CNC(=O)c2ccc3nc(C(C(=O)NCCS(N)(=O)=O)S(=O)(=O)CCC(F)(F)F)sc3c2)on1` (centres unmarked) [Example B199, N-((3-isopropyl-5-isoxazolyl)methyl)-2-(2-oxo-2-((2-sulfamoylethyl)a-mino)-1-((3,3,3-trifluoropropyl)sulfonyl)eth-yl)-1,3-benzothiazole-6-carboxamide]: the figures for the concentration for half-maximal inhibition (IC50) on Endothelial lipase (EL) and against hepatic lipase (HL) were 166 nM and 3670 nM, respectively.
